Laboratory results: patent publication US20250161453A1, “LIGHT-ACTIVATABLE, SUSTAINED-EXPOSURE ETHANOL INJECTION” (University of Maryland, College Park, priority 2022, published 2025)

What was measured:
[1] = Stability of BPD stock solution; format: physicochemical; conditions: 5 mg BPD powder in 1 mL dimethyl sulfoxide, wrapped in aluminum foil
Method: To prepare the BPD stock solution, 5 mg of the BPD powder was dissolved with 1 mL of dimethyl sulfoxide in a 2 mL cryovial container. The molarity of the sample was confirmed with a microplate reader using the established molar extinction coefficient of BPD in dimethyl sulfoxide (DMSO; ˜34,895 M^−1 cm^−1 at 687 nm). The container was wrapped in aluminum foil and stored in a −20° C. freezer.

[2] = Singlet oxygen production (Singlet Oxygen Sensor Green) in phantom punch biopsies; conditions: 20 μM
Method: For the tumor-mimicking mechanical phantom, 5 mm-deep portions of the phantom were removed via a biopsy tool with a diameter of 6.4 mm and placed into a 96-well, clear flat-bottom microplate. Singlet oxygen production was determined using Singlet Oxygen Sensor Green (SOSG) and a microplate reader before irradiation. The SOSG fluorescence was measured with excitation/emission wavelengths of 504/525 nm. The samples were then irradiated with a 690 nm continuous-wave laser at various radiant exposures, and singlet oxygen production was measured using SOSG and the microplate reader after irradiation. The difference between the obtained SOSG fluorescence values between pre- and post-irradiance samples constituted the relative singlet oxygen production of that particular punch biopsy sample.
Table 4 details a strategy for measuring the singlet oxygen production of a sample (e.g., phantom specimen from a punch biopsy). […] 0 μM (EC-Ethanol only), phantom only, and BPD only (dissolved in DMSO) groups were included as negative controls, while the Rose Bengal group (type II photosensitizer capable of generating singlet oxygen via 525 nm light absorption) was included as a positive control. This strategy can be applied to estimate the relative production of singlet oxygen of photosensitizers in other liquid needle injections.
Upon red light (690 nm) activation of BPD-EC-EtOH, the fluorescence signal generated from BPD can be used for imaging of the depot, as shown in FIG. 6E.

Row | Compound | stability of reconstituted stock solution (in words) [1] | Post-irradiation RFU ([2]; SOSG fluorescence 504/525 nm) | Pre-irradiation RFU ([2]; SOSG fluorescence 504/525 nm) | Relative singlet oxygen production (SOSG fluorescence difference) ([2]; difference post- minus pre-irradiation)
1 | benzoporphyrin derivative [BPD] | generally stable at −20 °C for several months |  |  | 
2 | O=C([O-])c1c(Cl)c(Cl)c(Cl)c(Cl)c1-c1c2cc(I)c(=O)c(I)c-2oc2c(I)c([O-])c(I)cc12.[Na+].[Na+] [Rose Bengal] |  | 64703 RFU | 18345 RFU | 46358 RFU
